Results published in DBAASP.
Converted amounts (≈) assume the structure as drawn. One block for each compound: values may come before it.

Experiments:
Assay in all cases: ≥ marks a high value that may be exact or a test limit, other limits are often not marked, values filed in µg/mL are converted to µM
[1] = test system: Staphylococcus carnosus KHS
[2] = test system: Staphylococcus aureus ATCC 2592
[3] = test system: Bacillus licheniformis X39
[4] = test system: Psychrobacter faecalis X29
[5] = test system: Staphylococcus aureus ATCC 25923
[6] = test system: Candida albicans ATCC 2002
[7] = test system: Rhodococcus rhodochrous X15
[8] = test system: Enterococcus faecalis 981
[9] = test system: Pseudomonas aeruginosa Ps4
[10] = test system: Klebsiella pneumoniae ATCC 10031
[11] = test system: Salmonella enterica subsp. enterica serovar Typhimurium ATCC 14028
[12] = test system: Escherichia coli DH5alpha
Escherichia coli JW0013 = test system: Escherichia coli JW0013

- MIC [1]: ≥ 37.5 µM
- MIC [2]: ≥ 46.4 µM
- MIC [3]: 19 µM (≈ 30.7 µg/mL)
- MIC [4]: ≥ 75 µM
- MIC [5]: 37.5 µM (≈ 60.6 µg/mL)
- MIC [6]: ≥ 75 µM
- MIC [7]: 4.8 µM (≈ 7.76 µg/mL)
- MIC [8]: ≥ 150 µM
Structure (SMILES): CC[C@H](C)[C@H](NC(=O)[C@H](C)N)C(=O)N[C@@H](CC(C)C)C(=O)N[C@H](C(=O)N[C@H](C(=O)N[C@@H](CC(C)C)C(=O)N[C@@H](C)C(=O)N[C@@H](CC(N)=O)C(=O)N[C@@H](Cc1c[nH]c2ccccc12)C(=O)N[C@@H](C)C(=O)N[C@@H](CCCN=C(N)N)C(=O)N[C@@H](CCCCN)C(=O)N[C@@H](Cc1ccccc1)C(=O)N[C@@H](CC(C)C)C(N)=O)[C@@H](C)O)[C@@H](C)O [AILTTLANWARKFL]

- MIC [9]: ≥ 183 µM
Structure (SMILES): CC[C@H](C)[C@H](NC(=O)[C@H](CC(N)=O)NC(=O)[C@H](CCCN=C(N)N)NC(=O)[C@H](CCC(N)=O)NC(=O)[C@H](Cc1c[nH]c2ccccc12)NC(=O)[C@@H](N)CS)C(=O)N[C@@H](CCCN=C(N)N)C(=O)N[C@@H](CCCCN)C(=O)N[C@@H](CS)C(=O)N[C@@H](CCCN=C(N)N)C(N)=O [CWQRNIRKCR]

- MIC [1]: 19 µM (≈ 27.3 µg/mL)
- MIC [3]: 19 µM (≈ 27.3 µg/mL)
- MIC [5]: 150 µM (≈ 216 µg/mL)
- MIC [7]: 4.5 µM (≈ 6.47 µg/mL)
- MIC [8]: ≥ 75 µM
Structure (SMILES): CC[C@H](C)[C@H](NC(=O)[C@@H]1CCCN1C(=O)[C@H](Cc1ccccc1)NC(=O)[C@@H](N)Cc1ccccc1)C(=O)N[C@H](C(=O)NCC(=O)N[C@@H](CCCCN)C(=O)N[C@@H](CC(C)C)C(=O)N[C@@H](CC(C)C)C(=O)N[C@@H](CO)C(=O)NCC(=O)N[C@@H](CC(C)C)C(=O)N[C@@H](Cc1ccccc1)C(N)=O)C(C)C [FFPIVGKLLSGLF]

- MIC [10]: 16.3 µM (≈ 25 µg/mL)
- MIC [11]: 16.3 µM (≈ 25 µg/mL)
- MIC [12]: 4.08 µM (≈ 6.25 µg/mL)
Structure (SMILES): CC(C)C[C@H](NC(=O)[C@H](CCCCN)NC(=O)[C@H](CCCCN)NC(=O)[C@H](CC(C)C)NC(=O)[C@H](CC(C)C)NC(=O)[C@H](CCCCN)NC(=O)[C@H](CC(C)C)NC(=O)[C@@H](N)Cc1ccccc1)C(=O)N[C@@H](C)C(=O)N[C@@H](C)C(=O)N[C@@H](CCCCN)C(=O)N[C@@H](CC(C)C)C(=O)N[C@@H](Cc1ccccc1)C(=O)O [FLKLLKKLAAKLF]

- MIC [1]: 19 µM (≈ 26.7 µg/mL)
- MIC [3]: 19 µM (≈ 26.7 µg/mL)
- MIC [5]: 150 µM (≈ 210 µg/mL)
- MIC [7]: 9 µM (≈ 12.6 µg/mL)
- MIC [8]: ≥ 37.5 µM
Structure (SMILES): CC[C@H](C)[C@H](NC(=O)[C@@H]1CCCN1C(=O)[C@H](CC(C)C)NC(=O)[C@@H](N)Cc1ccccc1)C(=O)N[C@H](C(=O)NCC(=O)N[C@@H](CCCCN)C(=O)N[C@@H](CC(C)C)C(=O)N[C@@H](CC(C)C)C(=O)N[C@@H](CO)C(=O)NCC(=O)N[C@@H](CC(C)C)C(=O)N[C@@H](Cc1ccccc1)C(N)=O)C(C)C [FLPIVGKLLSGLF]

- MIC [9]: ≥ 143 µM
Structure (SMILES): CC[C@H](C)[C@H](NC(=O)[C@H](CCCCN)NC(=O)[C@H](CCCCN)NC(=O)[C@H](CCCCN)NC(=O)[C@@H](NC(=O)[C@H](CCCCN)NC(=O)[C@H](CCCN=C(N)N)NC(=O)[C@@H](NC(=O)[C@H](CC(N)=O)NC(=O)[C@H](CCCN=C(N)N)NC(=O)[C@H](CCC(N)=O)NC(=O)[C@H](Cc1c[nH]c2ccccc12)NC(=O)[C@@H](N)Cc1ccccc1)[C@@H](C)CC)C(C)C)C(N)=O [FWQRNIRKVKKKI]

- MIC [9]: ≥ 172 µM
Structure (SMILES): CC(C)[C@H](NC(=O)[C@H](CCCCN)NC(=O)[C@H](CCCN=C(N)N)NC(=O)[C@H](Cc1ccc(O)cc1)NC(=O)[C@H](CC(N)=O)NC(=O)[C@H](CCCN=C(N)N)NC(=O)[C@H](CCC(N)=O)NC(=O)[C@H](Cc1c[nH]c2ccccc12)NC(=O)[C@@H](N)Cc1ccccc1)C(=O)N[C@@H](CCCN=C(N)N)C(N)=O [FWQRNYRKVR]

- MIC [9]: ≥ 215 µM
Structure (SMILES): CC[C@H](C)[C@H](NC(=O)[C@H](CCCN=C(N)N)NC(=O)[C@H](Cc1c[nH]c2ccccc12)NC(=O)[C@@H](N)Cc1ccccc1)C(=O)N[C@@H](CCCN=C(N)N)C(=O)N[C@@H](CCCCN)C(=O)N[C@H](C(=O)N[C@@H](CCCN=C(N)N)C(N)=O)C(C)C [FWRIRKVR]

- MIC [9]: 23.9 µM (≈ 31.2 µg/mL)
Structure (SMILES): CC[C@H](C)[C@H](NC(=O)[C@H](CCCN=C(N)N)NC(=O)[C@H](Cc1c[nH]c2ccccc12)NC(=O)[C@@H](N)Cc1ccccc1)C(=O)N[C@@H](Cc1c[nH]c2ccccc12)C(=O)N[C@@H](CCCN=C(N)N)C(=O)N[C@@H](Cc1c[nH]c2ccccc12)C(=O)N[C@@H](CCCN=C(N)N)C(N)=O [FWRIWRWR]

- MIC [4]: ≥ 400 µM
Structure (SMILES): CC[C@H](C)[C@@H]1NC(=O)[C@H](CCCCN)NC(=O)[C@@H](NC(=O)[C@H](CCCCN)NC(=O)[C@H](C)NC(=O)[C@H](CCCCN)NC(=O)[C@H](CC(=O)O)NC(=O)[C@H](CCSC)NC(=O)[C@H](CC(C)C)NC(=O)[C@@H](NC(=O)CNC(=O)[C@H](C)NC(=O)[C@H](CC(C)C)NC(=O)[C@H](CC(N)=O)NC(=O)[C@@H](NC(=O)[C@@H](NC(=O)[C@@H](NC(=O)[C@H](CC(N)=O)NC(=O)[C@H](CCSC)NC(=O)[C@H](C)NC(=O)[C@@H](NC(=O)[C@H](CC(N)=O)NC(=O)[C@H](CC(C)C)NC(=O)[C@H](Cc2ccccc2)NC(=O)CN)[C@@H](C)O)[C@@H](C)O)C(C)C)[C@@H](C)O)[C@@H](C)O)CSSC[C@@H](C(=O)O)NC(=O)CNC(=O)[C@H](CCCN=C(N)N)NC1=O [GFLNTAMNTVTNLAGTLMDKAKCKIRGC]

- MIC [9]: ≥ 177 µM
Structure (SMILES): CC[C@H](C)[C@H](NC(=O)[C@H](CCCN=C(N)N)NC(=O)[C@@H](NC(=O)[C@H](CC(N)=O)NC(=O)[C@H](CCCN=C(N)N)NC(=O)[C@H](CCC(N)=O)NC(=O)[C@H](Cc1c[nH]c2ccccc12)NC(=O)[C@@H](N)CC(C)C)[C@@H](C)CC)C(=O)N[C@@H](CCCN=C(N)N)C(=O)N[C@@H](CCCN=C(N)N)C(N)=O [LWQRNIRIRR]

- MIC [2]: 1.7 µM (≈ 6.04 µg/mL)
- MIC [3]: 14 µM (≈ 49.7 µg/mL)
- MIC [4]: 1.7 µM (≈ 6.04 µg/mL)
Structure (SMILES): CC[C@H](C)[C@H](NC(=O)[C@H](CCCCN)NC(=O)[C@H](CC(=O)O)NC(=O)[C@H](CC(C)C)NC(=O)[C@@H](NC(=O)[C@H](CC(N)=O)NC(=O)[C@H](CC(C)C)NC(=O)[C@@H](NC(=O)[C@H](Cc1ccccc1)NC(=O)[C@H](CCC(N)=O)NC(=O)[C@H](CCCCN)NC(=O)CNC(=O)[C@H](C)NC(=O)[C@H](CC(N)=O)NC(=O)[C@H](CCCCN)NC(=O)[C@H](Cc1ccccc1)NC(=O)[C@H](CC(N)=O)NC(=O)[C@H](CCC(=O)O)NC(=O)[C@H](Cc1c[nH]c2ccccc12)NC(=O)[C@H](CC(C)C)NC(=O)[C@@H](N)CO)[C@@H](C)CC)[C@@H](C)CC)C(=O)N[C@@H](CCCN=C(N)N)C(=O)N[C@H]1CSSC[C@@H](C(=O)N[C@@H](CCCN=C(N)N)C(=O)N[C@H](C(=O)O)[C@@H](C)O)NC(=O)CNC(=O)CNC(=O)[C@H](C)NC(=O)[C@H](C(C)C)NC(=O)[C@H](CCCN=C(N)N)NC1=O [SLWENFKNAGKQFILNILDKIRCRVAGGCRT]

- MIC (Escherichia coli JW0013): 2 µM (≈ 4.8 µg/mL)
Structure (SMILES): CC[C@H](C)[C@H](NC(=O)[C@H](CCCN=C(N)N)NC(=O)[C@H](CCCN=C(N)N)NC(=O)[C@@H]1CCCN1C(=O)[C@@H]1CCCN1C(=O)[C@H](CCCN=C(N)N)NC(=O)[C@@H]1CCCN1C(=O)[C@H](CCCN=C(N)N)NC(=O)[C@@H]1CCCN1C(=O)[C@H](CC(C)C)NC(=O)[C@H](Cc1ccc(O)cc1)NC(=O)[C@H](CS)NC(=O)[C@@H]1CCCN1C(=O)[C@H](CCCCN)NC(=O)[C@H](CC(=O)O)NC(=O)[C@@H](N)C(C)C)C(=O)N[C@@H](Cc1ccc(O)cc1)C(=O)N[C@@H](CC(N)=O)C(=O)N[C@@H](CCCN=C(N)N)C(N)=O [VDKPCYLPRPRPPRRIYNR]

- MIC (Escherichia coli JW0013): 0.965 µM (≈ 2.4 µg/mL)
Structure (SMILES): CC[C@H](C)[C@H](NC(=O)[C@H](CCCN=C(N)N)NC(=O)[C@H](CCCN=C(N)N)NC(=O)[C@@H]1CCCN1C(=O)[C@@H]1CCCN1C(=O)[C@H](CCCN=C(N)N)NC(=O)[C@@H]1CCCN1C(=O)[C@H](CCCN=C(N)N)NC(=O)[C@@H]1CCCN1C(=O)[C@H](CCCN=C(N)N)NC(=O)[C@H](CCCN=C(N)N)NC(=O)[C@@H]1CCCN1C(=O)[C@H](CCCN=C(N)N)NC(=O)[C@H](CCCCN)NC(=O)[C@H](CC(=O)O)NC(=O)[C@@H](N)C(C)C)C(=O)N[C@@H](Cc1ccc(O)cc1)C(=O)N[C@@H](CC(N)=O)C(=O)N[C@@H](CCCN=C(N)N)C(N)=O [VDKRPRRPRPRPPRRIYNR]
